Test results taken from patent publication US20220396586A1, “THIAZOLE CARBOXAMIDE COMPOUNDS AND USE THEREOF FOR THE TREATMENT OF MYCOBACTERIAL INFECTIONS” (THE GLOBAL ALLIANCE FOR TB DRUG DEVELOPMENT, INC., priority 2019, published 2022).
In brackets after ≈: the same amount, converted by molar mass.

How the values were obtained:
M. tb H37Rv = assay: MIC determination against M. tb H37Rv (MIC-MABA); format: cell-based, Mycobacterium tuberculosis; settings: 7H9 broth, 10 days exposure, MIC = lowest concentration inhibiting fluorescence by 90%; for MIC: Mycobacterium tuberculosis, H37RV, 240 h, read-out: M. tb H37Rv: MIC-MABA, M. tb H37Rv
M. ab_ATCC = assay: MIC against Mycobacterium abscessus (M. ab_ATCC, MHII), procedure of Franz 2017; format: cell-based; settings: Mycobacterium abscessus ATCC; for MIC: Mycobacteroides abscessus
Text: The procedure described in Franz 2017 was used to generate the data shown in column 2 of Table 1.

Structure (SMILES)	MIC (M. tb H37Rv) [µg/mL]	MIC (M. ab_ATCC) [µg/mL]	M. tb H37Rv: MIC-MABA (M. tb H37Rv) [µg/mL]	M. ab_ATCC: MIC MHII: MIC (M. ab_ATCC) [µg/mL]
COCCOc1nc2[nH]c(C(=O)NC3CC[Si]4(CCCCC4)CC3)cc2s1 [MPL-427, 2-(2-methoxyethoxy)-N-(6-silaspiro[5.5]undecan-3-yl)-4H-pyrrolo[2,3-d] thiazole-5-carboxamide]	0.036 (≈ 0.0883 µM)	> 64	–	–
C[Si]1(C)CCCC(NC(=O)c2cc3sc(-c4ccccc4)nc3[nH]2)CC1 (single isomer, unassigned) [MPL-357A, N-(1,1-dimethylsilepan-4-yl)-2-phenyl-4H-pyrrolo[2,3-d]thiazole-5-carboxamide]	–	–	0.007	–
C[Si]1(C)CCCC(NC(=O)c2cc3sc(-c4ccccc4)nc3[nH]2)CC1 (single isomer, unassigned) [MPL-357B, N-(1,1-dimethylsilepan-4-yl)-2-phenyl-4H-pyrrolo[2,3-d]thiazole-5-carboxamide]	–	–	0.110	–
Cc1nc2cc(C(=O)N[C@H]3C[C@H]4C[C@@H]([C@@H]3C)C4(C)C)[nH]c2s1 [MPL-090, 2-methyl-N-((1S,2S,3S,5R)-2,6,6-trimethylbicyclo[3.1.1]heptan-3-yl)-4H-pyrrolo[3,2-d]thiazole-5-carboxamide]	3.2 (≈ 10.1 µM)	> 64	–	–
C[Si]1(C)CCC(NC(=O)c2cc3sc(-c4ccccc4F)nc3[nH]2)CC1 [MPL-373, N-(1,1-dimethylsilinan-4-yl)-2-(2-fluorophenyl)-4H-pyrrolo[2,3-d]thiazole-5-carboxamide]	0.084 (≈ 0.217 µM)	6 (≈ 15.5 µM)	–	–
C[Si]1(C)CCCC(NC(=O)c2cc3sc(-c4ccccn4)nc3[nH]2)CC1 (centres unmarked) [MPL-364, N-(1,1-dimethylsilepan-4-yl)-2-(2-pyridyl)-4H-pyrrolo[2,3-d]thiazole-5-carboxamide]	0.423 (≈ 1.1 µM)	> 64	–	–
Cc1nc2[nH]c(C(=O)NC3CCC(C)(C)CC3)cc2s1 [MPL-020, N-(4,4-dimethylcyclohexyl)-2-methyl-4H-pyrrolo[2,3-d]thiazole-5-carboxamide]	0.53 (≈ 1.82 µM)	2 (≈ 6.86 µM)	–	–
COc1nc2[nH]c(C(=O)NC3CCC[Si](C)(C)CC3)cc2s1 (single isomer, unassigned) [MPL-395B, N-(1,1-dimethylsilepan-4-yl)-2-methoxy-4H-pyrrolo[2,3-d]thiazole-5-carboxamide]	–	–	0.999	>64
COc1nc2[nH]c(C(=O)N[C@H]3C[C@H]4C[C@H](C4(C)C)[C@@]3(C)O)cc2s1 [MPL-457, N-[(1R,2R,3S,5R)-2-hydroxy-2,6,6-trimethyl-norpinan-3-yl]-2-methoxy-4H-pyrrolo[2,3-d]thiazole-5-carboxamide]	> 1	–	–	–
C[C@@H]1[C@@H](NC(=O)c2cc3scnc3[nH]2)C[C@H]2C[C@@H]1C2(C)C [MPL-026, N-[(1S,2S,3S,5R)-2,6,6-trimethylnorpinan-3-yl]-4H-pyrrolo[2,3-d]thiazole-5-carboxamide]	3.1 (≈ 10.2 µM)	–	–	–
Cc1c(C(=O)NC2CC[Si]3(CCCCC3)CC2)[nH]c2nc(-c3ccccc3)sc12 [MPL-431, 6-methyl-2-phenyl-N-(6-silaspiro[5.5]undecan-3-yl)-4H-pyrrolo[2,3-d]thiazole-5-carboxamide]	0.021 (≈ 0.0496 µM)	> 64	–	–
Cc1nc2[nH]c(C(=O)NC3CC[Si](C)(C)CC3)cc2s1 [MPL-205, N-(1,1-dimethylsilinan-4-yl)-2-methyl-4H-pyrrolo [2,3-d]thiazole-5-carboxamide]	0.18 (≈ 0.585 µM)	> 64	–	–
COc1nc2[nH]c(C(=O)NC3CCC(C)(C)CC3)cc2s1 [MPL-456, N-(4,4-dimethylcyclohexyl)-2-methoxy-4H-pyrrolo[2,3-d]thiazole-5-carboxamide]	0.317 (≈ 1.03 µM)	1 (≈ 3.25 µM)	–	–
Cc1nc2[nH]c(C(=O)N[C@H]3C[C@H]4C[C@H](C4(C)C)[C@@]3(C)O)cc2s1 [MPL-224, N-[(1R,2R,3S,5R)-2-hydroxy-2,6,6-trimethyl-norpinan-3-yl]-2-methyl-4H-pyrrolo[2,3-d]thiazole-5-carboxamide]	0.39 (≈ 1.17 µM)	> 64	–	–
O=C(NC1CCCCCCC1)c1cc2sc(C3CC3)nc2[nH]1 [MPL-142, N-cyclooctyl-2-cyclopropyl-4H-pyrrolo[2,3-d]thiazole-5-carboxamide]	0.93 (≈ 2.93 µM)	> 64	–	–
Cc1nc2cc(C(=O)NC3CC[Si](C)(C)CC3)[nH]c2s1 [MPL-206, N-(1,1-dimethylsilinan-4-yl)-2-methyl-4H-pyrrolo[3,2-d]thiazole-5-carboxamide]	> 1.6	> 64	–	–
C[Si]1(C)CCCC(NC(=O)c2cc3sc(C4CC4)nc3[nH]2)CCC1 [MPL-304, 2-cyclopropyl-N-(1,1-dimethylsilocan-5-yl) -4H-pyrrolo[2,3-d]thiazole-5-carboxamide]	0.291 (≈ 0.805 µM)	> 64	–	–
C[Si]1(C)CCC(NC(=O)c2cc3sc(C4CC4)nc3[nH]2)C1 (centres unmarked) [MPL-297, 2-cyclopropyl-N-(1,1-dimethylsilolan-3-yl)-4H-pyrrolo[2,3-d]thiazole-5-carboxamide]	0.982 (≈ 3.07 µM)	> 64	–	–

Structure (SMILES)	MIC (M. tb H37Rv) [µg/mL]	MIC (M. ab_ATCC) [µg/mL]	M. tb H37Rv: MIC-MABA (M. tb H37Rv) [µg/mL]	M. ab_ATCC: MIC MHII: MIC (M. ab_ATCC) [µg/mL]
Cc1c(C(=O)NC2CCCCCCC2)[nH]c2nc(C3CC3)sc12 [MPL-291, N-cyclooctyl-2-cyclopropyl-6-methyl-4H-pyrrolo[2,3-d]thiazole-5-carboxamide]	0.372 (≈ 1.12 µM)	> 64	–	–
C[Si]1(C)CCC(NC(=O)c2cc3sc(C4CCCC4)nc3[nH]2)CC1 [MPL-474, 2-cyclopentyl-N-(1,1-dimethylsilinan-4-yl)-4H-pyrrolo[2,3-d] thiazole-5-carboxamide]	0.061 (≈ 0.169 µM)	> 64	–	–
C[Si]1(C)CCCC(NC(=O)c2cc3sc(-c4ccccc4)nc3[nH]2)CCC1 [MPL-369, N-(1,1-dimethylsilocan-5-yl)-2-phenyl-4H-pyrrolo[2,3-d]thiazole-5-carboxamide]	0.031 (≈ 0.078 µM)	> 64	–	–
COCc1nc2[nH]c(C(=O)NC3CC[Si]4(CCCCC4)CC3)cc2s1 [MPL-429, 2-(methoxymethyl)-N-(6-silaspiro[5.5]undecan-3-yl)-4H-pyrrolo[2,3-d]thiazole-5-carboxamide]	0.058 (≈ 0.154 µM)	64 (≈ 169 µM)	–	–
O=C(NC1CC[Si]2(CCCC2)CC1)c1cc2sc(-c3ccccc3)nc2[nH]1 [MPL-358, 2-phenyl-N-(5-silaspiro[4.5]decan-8-yl)-4H-pyrrolo[2,3-d]thiazole-5-carboxamide]	0.033 (≈ 0.0834 µM)	> 64	–	–
Cc1c(C(=O)N[C@H]2C[C@H]3C[C@@H]([C@@H]2C)C3(C)C)[nH]c2nc(C3CC3)sc12 [MPL-150, 2-cyclopropyl-6-methyl-N-((1S,2S,3S,5R)-2,6,6-trimethylbicyclo[3.1.1]heptan-3-yl)-4H-pyrrolo[2,3-d]thiazole-5-carboxamide]	0.3 (≈ 0.839 µM)	> 64	–	–
C[Si]1(C)CCCC(NC(=O)c2cc3sc(OC4CCCC4)nc3[nH]2)CC1 (centres unmarked) [MPL-478, 2-(cyclopentoxy)-N-(1,1-dimethylsilepan-4-yl)-4H-pyrrolo[2,3-d]thiazole-5-carboxamide]	0.02 (≈ 0.0511 µM)	> 64	–	–
C[Si]1(C)CCC(NC(=O)c2cc3sc(-c4ccncc4)nc3[nH]2)CC1 [MPL-370, N-(1,1-dimethylsilinan-4-yl)-2-(4-pyridyl)-4H-pyrrolo[2,3-d]thiazole-5-carboxamide]	0.574 (≈ 1.55 µM)	> 64	–	–
CC1(C)CCC(NC(=O)c2cc3scnc3[nH]2)CC1 [MPL-021, N-(4,4-dimethylcyclohexyl)-4H-pyrrolo[2,3-d]thiazole-5-carboxamide]	1.3 (≈ 4.69 µM)	> 64	–	–
COc1nc2[nH]c(C(=O)NC3CCC[Si](C)(C)CC3)cc2s1 (single isomer, unassigned) [MPL-395A, N-(1,1-dimethylsilepan-4-yl)-2-methoxy-4H-pyrrolo[2,3-d]thiazole-5-carboxamide]	–	–	0.030	0.5
COc1nc2cc(C(=O)NC3CC[Si](C)(C)CC3)[nH]c2s1 [MPL-313, N-(1,1-dimethylsilinan-4-yl)-2-methoxy-4H-pyrrolo[3,2-d]thiazole-5-carboxamide]	0.254 (≈ 0.785 µM)	> 64	–	–
C[Si]1(C)CCCC(NC(=O)c2cc3sc(OC4CCC4)nc3[nH]2)CC1 (centres unmarked) [MPL-475, 2-(cyclobutoxy)-N-(1,1-dimethylsilepan-4-yl)-4H-pyrrolo[2,3-d]thiazole-5-carboxamide]	0.046 (≈ 0.122 µM)	16 (≈ 42.4 µM)	–	–
CC1CCC(NC(=O)c2cc3sc(-c4ccccc4)nc3[nH]2)CC1 (single isomer, unassigned) [MPL-433A, N-(4-methylcyclohexyl)-2-phenyl-4H-pyrrolo[2,3-d]thiazole-5-carboxamide]	> 1	–	–	–
C[Si]1(C)CCC(NC(=O)c2cc3sc(-c4ccccc4)nc3[nH]2)CC1 [MPL-308, N-(1,1-dimethylsilinan-4-yl)-2-phenyl-4H-pyrrolo[2,3-d]thiazole-5-carboxamide]	0.007 (≈ 0.0189 µM)	> 64	–	–
COc1nc2[nH]c(C(=O)NC3CCC[Si](C)(C)CC3)cc2s1 (racemic) [MPL-395, N-(1,1-dimethylsilepan-4-yl)-2-methoxy-4H-pyrrolo[2,3-d]thiazole-5-carboxamide]	0.047 (≈ 0.139 µM)	1 (≈ 2.96 µM)	–	–
COc1nc2[nH]c(C(=O)NC3CC[Si](C)(C)CC3)cc2s1 [MPL-309, N-(1,1-dimethylsilinan-4-yl)-2-methoxy-4H-pyrrolo[2,3-d]thiazole-5-carboxamide]	0.088 (≈ 0.272 µM)	0.625 (≈ 1.93 µM)	–	–
CC(C)(C)c1ccc(-c2nc3[nH]c(C(=O)NC4CC[Si]5(CCCCC5)CC4)cc3s2)cc1 [MPL-426, 2-(4-tert-butylphenyl)-N-(6-silaspiro[5.5]undecan-3-yl)-4H-pyrrolo[2,3-d]thiazole-5-carboxamide]	0.12 (≈ 0.258 µM)	–	–	–
CC1CCC(NC(=O)c2cc3sc(-c4ccccc4)nc3[nH]2)CC1 (single isomer, unassigned) [MPL-433B, N-(4-methylcyclohexyl)-2-phenyl-4H-pyrrolo[2,3-d]thiazole-5-carboxamide]	–	–	0.69	–
